Test results: ChEMBL document CHEMBL3822440, “Semi-synthesis and antiproliferative evaluation of PEGylated pentacyclic triterpenes” (Eur J Med Chem, 2016)
pIC50: −log10 of the molar value. Active and inactive are the calls of the source. The rule behind the calls is not given here.

Tests used:
[1] = Cytotoxicity against mouse B16F10 cells assessed as growth inhibition after 72 hrs by MTT assay; type: functional, cell-based; conditions: B16-F10, 72 h
HT-29 [2] = test: Cytotoxicity against human HT-29 cells assessed as growth inhibition after 72 hrs by MTT assay; type: functional, cell-based; conditions: HT-29, 72 h
HepG2 [3] = test: Cytotoxicity against human HepG2 cells assessed as growth inhibition after 72 hrs by MTT assay; type: functional, cell-based; conditions: HepG2, 72 h
B16-F10 [4] = test: Potency index, ratio of maslinic acid IC50 to compound IC50 for mouse B16F10 cells; type: functional
HT-29 [5] = test: Potency index, ratio of maslinic acid IC50 to compound IC50 for human HT-29 cells; type: functional
HepG2 [6] = test: Potency index, ratio of maslinic acid IC50 to compound IC50 for human HepG2 cells; type: functional
[7] = Induction of apoptosis in mouse B16F10 cells assessed as live cells at cytotoxic IC50 after 72 hrs by Annexin V-FITC/propidium iodide staining based flow cytometry (reference value: 97.55 +/- 0.5%); type: functional, B16-F10
[8] = Induction of apoptosis in mouse B16F10 cells assessed as late apoptotic cells at cytotoxic IC50 after 72 hrs by Annexin V-FITC/propidium iodide staining based flow cytometry (reference value: 0.75 +/- 0.21%); type: functional, B16-F10
HT-29 [9] = test: Induction of apoptosis in human HT-29 cells assessed as necrotic cells at cytotoxic IC50 after 72 hrs by Annexin V-FITC/propidium iodide staining based flow cytometry (reference value: 1.05 +/- 0.35%); type: functional
HepG2 [10] = test: Induction of apoptosis in human HepG2 cells assessed as live cells at cytotoxic IC50 after 72 hrs by Annexin V-FITC/propidium iodide staining based flow cytometry (reference value: 99.55 +/- 0.07%); type: functional
HepG2 [11] = test: Induction of apoptosis in human HepG2 cells assessed as early apoptotic cells at cytotoxic IC50 after 72 hrs by Annexin V-FITC/propidium iodide staining based flow cytometry (reference value: 0.3 +/- 0.01%); type: functional
HepG2 [12] = test: Induction of apoptosis in human HepG2 cells assessed as late apoptotic cells at cytotoxic IC50 after 72 hrs by Annexin V-FITC/propidium iodide staining based flow cytometry relative to control; type: functional
HepG2 [13] = test: Induction of apoptosis in human HepG2 cells assessed as necrotic cells at cytotoxic IC50 after 72 hrs by Annexin V-FITC/propidium iodide staining based flow cytometry (reference value: 0.1 +/- 0.01%); type: functional
[14] = Cell cycle arrest in mouse B16F10 cells assessed as accumulation at S phase at cytotoxic IC50 after 72 hrs by propidium iodide staining based flow cytometry (reference value: 48.31 +/- 0.74%); type: functional, B16-F10
[15] = Cell cycle arrest in mouse B16F10 cells assessed as accumulation at G2/M phase at cytotoxic IC50 after 72 hrs by propidium iodide staining based flow cytometry (reference value: 1.01 +/- 0.13%); type: functional, B16-F10
HT-29 [16] = test: Cell cycle arrest in human HT-29 cells assessed as accumulation at G0/G1 phase at cytotoxic IC50 after 72 hrs by propidium iodide staining based flow cytometry (reference value: 55.18 +/- 0.22%); type: functional
HT-29 [17] = test: Cell cycle arrest in human HT-29 cells assessed as accumulation at S phase at cytotoxic IC50 after 72 hrs by propidium iodide staining based flow cytometry (reference value: 48.31 +/- 1.49%); type: functional
HepG2 [18] = test: Cell cycle arrest in human HepG2 cells assessed as accumulation at S phase at cytotoxic IC50 after 72 hrs by propidium iodide staining based flow cytometry (reference value: 54.71 +/- 2.37%); type: functional
HepG2 [19] = test: Cell cycle arrest in human HepG2 cells assessed as accumulation at G2/M phase at cytotoxic IC50 after 72 hrs by propidium iodide staining based flow cytometry (reference value: 8.47 +/- 2.55%); type: functional
[20] = Disruption of mitochondrial membrane potential in mouse B16F10 cells assessed as rhodamine123 positive cells at cytotoxic IC50 after 72 hrs by propidium iodide staining based fluorescence spectroscopic analysis (reference value: 95.6 +/- 0.57%); type: functional, B16-F10
[21] = Disruption of mitochondrial membrane potential in mouse B16F10 cells assessed as rhodamine123 negative cells at cytotoxic IC50 after 72 hrs by propidium iodide staining based fluorescence spectroscopic analysis (reference value: 4.45 +/- 0.64%); type: functional, B16-F10
HT-29 [22] = test: Disruption of mitochondrial membrane potential in human HT-29 cells assessed as rhodamine123 negative cells at cytotoxic IC50 after 72 hrs by propidium iodide staining based fluorescence spectroscopic analysis (reference value: 5.8 +/- 0.42%); type: functional
HepG2 [23] = test: Disruption of mitochondrial membrane potential in human HepG2 cells assessed as rhodamine123 positive cells at cytotoxic IC50 after 72 hrs by propidium iodide staining based fluorescence spectroscopic analysis (reference value: 88.3 +/- 8.87%); type: functional
B16-F10 [24] = test: Induction of apoptosis in mouse B16F10 cells assessed as cell shrinkage at cytotoxic IC50 after 72 hrs by Hoechst staining based fluorescence microscopic analysis; type: functional
B16-F10 [25] = test: Induction of apoptosis in mouse B16F10 cells assessed as spherical cell shape at cytotoxic IC50 after 72 hrs by Hoechst staining based fluorescence microscopic analysis; type: functional
B16-F10 [26] = test: Induction of apoptosis in mouse B16F10 cells assessed as disruption of cell membrane integrity at cytotoxic IC50 after 72 hrs by Hoechst staining based fluorescence microscopic analysis; type: functional
HT-29 [27] = test: Induction of apoptosis in human HT-29 cells assessed as nucleus containing nicked DNA at cytotoxic IC50 after 72 hrs by Hoechst staining based fluorescence microscopic analysis; type: functional, cell-based
HT-29 [28] = test: Induction of apoptosis in human HT-29 cells assessed as spherical cell shape at cytotoxic IC50 after 72 hrs by Hoechst staining based fluorescence microscopic analysis; type: functional
HT-29 [29] = test: Induction of apoptosis in human HT-29 cells assessed as chromatin condensation at cytotoxic IC50 after 72 hrs by Hoechst staining based fluorescence microscopic analysis; type: functional, cell-based
HT-29 [30] = test: Induction of apoptosis in human HT-29 cells assessed as loss of nuclear architecture at cytotoxic IC50 after 72 hrs by Hoechst staining based fluorescence microscopic analysis; type: functional, cell-based
HT-29 [31] = test: Induction of apoptosis in human HT-29 cells assessed as disruption of cell membrane integrity at cytotoxic IC50 after 72 hrs by Hoechst staining based fluorescence microscopic analysis; type: functional
HepG2 [32] = test: Induction of apoptosis in human HepG2 cells assessed as cell shrinkage at cytotoxic IC50 after 72 hrs by Hoechst staining based fluorescence microscopic analysis; type: functional
HepG2 [33] = test: Induction of apoptosis in human HepG2 cells assessed as bubble shaped region in cell surface at cytotoxic IC50 after 72 hrs by Hoechst staining based fluorescence microscopic analysis; type: functional
HepG2 [34] = test: Induction of apoptosis in human HepG2 cells assessed as chromatin condensation at cytotoxic IC50 after 72 hrs by Hoechst staining based fluorescence microscopic analysis; type: functional, cell-based
HepG2 [35] = test: Induction of apoptosis in human HepG2 cells assessed as loss of nuclear architecture at cytotoxic IC50 after 72 hrs by Hoechst staining based fluorescence microscopic analysis; type: functional, cell-based
HepG2 [36] = test: Induction of apoptosis in human HepG2 cells assessed as disruption of cell membrane integrity at cytotoxic IC50 after 72 hrs by Hoechst staining based fluorescence microscopic analysis; type: functional

Row | SMILES | pIC50 [1] | pIC50 (HT-29 [2]) | pIC50 (HepG2 [3]) | Ratio IC50 (B16-F10 [4]) | Ratio IC50 (HT-29 [5]) | Ratio IC50 (HepG2 [6]) | Activity [7] [%] | Activity [8] [%] | Activity (HT-29 [9]) [%] | Activity (HepG2 [10]) [%] | Activity (HepG2 [11]) [%] | Activity (HepG2 [12]) [%] | Activity (HepG2 [13]) [%] | Activity [14] [%] | Activity [15] [%] | Activity (HT-29 [16]) [%] | Activity (HT-29 [17]) [%] | Activity (HepG2 [18]) [%] | Activity (HepG2 [19]) [%] | Activity [20] [%] | further results
1 | CC1(C)CC[C@]2(C(=O)NCCCOCCOCCOCCCN)CC[C@]3(C)C(=CC[C@@H]4[C@@]5(C)C[C@@H](O)[C@H](O)C(C)(C)[C@@H]5CC[C@]43C)[C@@H]2C1 | 4.94 | 4.93 | 5.11 | 3.2 | 2.7 | 12.9 | 0.9 | 38.65 | 0.2 | 19.75 | 46.75 | 33.05 | 0.4 | 22.44 | 10.91 | 79.78 | 7.12 | 50.45 | 9.34 | 48.05 | Activity [21]: 51.95%; Activity (HT-29 [22]): 36.95%; Activity (HepG2 [23]): 59.2%; Activity (B16-F10 [24]): Active; Activity (B16-F10 [25]): Active; Activity (B16-F10 [26]): Active; Activity (HT-29 [27]): Active; Activity (HT-29 [28]): Active; Activity (HT-29 [29]): Active; Activity (HT-29 [30]): Active; Activity (HT-29 [31]): Active; Activity (HepG2 [32]): Active; Activity (HepG2 [33]): Active; Activity (HepG2 [34]): Active; Activity (HepG2 [35]): Active; Activity (HepG2 [36]): Active
2 | COCCOCCOCC(=O)O[C@@H]1C[C@]2(C)[C@H]3CC=C4[C@@H]5CC(C)(C)CC[C@]5(C(=O)O)CC[C@@]4(C)[C@]3(C)CC[C@H]2C(C)(C)[C@H]1OC(=O)COCCOCCOC | 4.31 | 4.40 | 4.22 | 0.7 | 0.8 | 1.7 | 11.1 | 56.05 | 0 | 55.7 | 14.75 | 29.1 | 0.4 | 12.07 | 0 | 94.28 | 4.97 | 26.7 | 15.45 | 75.05 | Activity [21]: 24.9%; Activity (HT-29 [22]): 5.7%; Activity (HepG2 [23]): 56.7%; Activity (B16-F10 [24]): Active; Activity (B16-F10 [25]): Active; Activity (B16-F10 [26]): Active; Activity (HT-29 [27]): Active; Activity (HT-29 [28]): Active; Activity (HT-29 [29]): Active; Activity (HT-29 [30]): Active; Activity (HT-29 [31]): Active; Activity (HepG2 [32]): Active; Activity (HepG2 [33]): Active; Activity (HepG2 [34]): Active; Activity (HepG2 [35]): Active; Activity (HepG2 [36]): Active
